Reference: patent publication US20090298868A1, “QUINOLINE COMPOUNDS AS MELANOGENESIS MODIFIERS AND USES THEREOF” (priority 2007, published 2009)
Structures can show the parent of a compound that is named as a salt. Where two headings read alike, the source gives them in different places.

Test system: cultured murine melanocytes (melan-a)
Assay: Melanin assay in cultured murine melanocytes (melan-a)
Assay type: cell-based
Details: for inhibition at 1 µM / inhibition at 5 µM / IC50: Mus musculus; for inhibition at 1 µM / inhibition at 5 µM: 72 h; for inhibition at 1 µM: read-out: % Inh. @ 1 μM; for inhibition at 5 µM: read-out: % Inh. @ 5 μM
Description: The Spectrum Collection library consisting of 2000 drug compounds or natural products was screened to identify novel pigmentation inhibitors or stimulators in cultured murine melanocytes (melan-a). Compounds were dissolved in dimethylsulfoxide (DMSO) to a final concentration of 10 mM. Screening was performed with cultured melanocytes in 24-well plates followed by melanin assay (see below). A minimum change of 50% in melanin formation was established as significant for a pigmentation inhibitor or stimulator. DMSO was used as a negative control and the widely used depigmenting agent, hydroquinone, was used as a positive control on every plate. Primary screening was performed at a final concentration of 1 μM and potential candidates from the primary screening were reconfirmed in duplicate at final concentrations of 1 and 5 μM.
Melan-a cells were plated at 5×10^4 cells per well in 1 ml of culture media in 24-well plates the day before adding the library compounds. All compounds were added at the indicated final concentrations. Cells were harvested after 72 hours of incubation, and melanin assay was performed.
The hits identified herein were purchased from Sigma (St Louis, Mo.). […] These compounds were dissolved in dimethylsulfoxide (DMSO) to a final concentration of 10 mM, and were tested for their effect on melanin synthesis at the indicated final concentrations.
For the primary and secondary screening, cells were harvested and dissolved in 200 μL of 2N NaOH in 20% DMSO at 70° C. A 180-μl aliquot of the resulting solution was measured for absorbance at 490 nm.
The lysates were centrifuged at 14,000 rpm for 10 minutes at 4° C. BCA protein assay kit (Pierce) was used to measure the protein concentrations of the supernatants, and bovine serum albumin was used as a standard. The remaining pellets were incubated with 100 μl ethanol-ether (1:1) for 10 minutes at room temperature. After removing the ethanol-ether, the pellets were dissolved in 200 μL of 2N NaOH in 20% DMSO at 70° C. A 180-μL aliquot of the resulting solution was measured for absorbance at 490 nm. The melanin contents were normalized to the total amount of protein.

[1] = Melan-a, melanin formation, melan-a cells, 1 μM compound, 72 hours incubation
[2] = Melan-a, melanin formation, melan-a cells, 5 μM compound, 72 hours incubation
[3] = inhibition of melanin synthesis, melan-a cells, read-out: IC50
[4] = melanin formation, melan-a cells, 1 μM compound, 72 hours incubation
[5] = melanin formation, melan-a cells, 5 μM compound, 72 hours incubation

Compound: C=C[C@H]1C[N@@]2CCC1C[C@H]2[C@H](O)c1ccnc2ccc(OC)cc12 (single isomer, unassigned; (+)) [ID 14, (+)-3-Hydroxybutyric acid, quinine salt]
- % Inh. @ 1 μM (melanin formation, melan-a cells, 1 μM compound, 72 hours incubation, 1 µM): 32.6%
- % Inh. @ 5 μM (melanin formation, melan-a cells, 5 μM compound, 72 hours incubation, 5 µM): 61.3%

Compound: CCN(CC)Cc1ccc(Nc2ccnc3cc(Cl)ccc23)cc1O [ID 1, Amodiaquine Dihydrochloride]
- inhibition at 1 µM [1]: 21%
- inhibition at 5 µM [2]: 79%
- IC50 [3]: 2600 ± 150 nM

Compound: CCN(CC)CCCC(C)Nc1ccnc2cc(Cl)ccc12 (centres unmarked) [ID 2, Chloroquine Diphosphate]
- IC50 (Melan-a): 700 ± 180 nM
- inhibition at 1 µM (Melan-a): 62%
- inhibition at 5 µM (Melan-a): 70%

Compound: COc1cc(NC(C)CCCN)c2ncccc2c1 (centres unmarked) [ID 3, Primaquine Diphosphate]
- IC50 (Melan-a): 6800 ± 370 nM
- inhibition at 1 µM (Melan-a): 30%
- inhibition at 5 µM (Melan-a): 47%

Compound: CCCCOc1cc(C(=O)NCCN(CC)CC)c2ccccc2n1 [ID 4, Dibucaine Hydrochloride]
- IC50 [3]: 10200 ± 280 nM

Compound: C=C[C@H]1C[N@]2CC[C@H]1C[C@@H]2[C@@H](OC(=O)OCC)c1ccnc2ccc(OC)cc12 [ID 5, Quinine Ethyl Carbonate]
- IC50 (Melan-a): 5100 ± 120 nM
- inhibition at 1 µM (Melan-a): 15%
- inhibition at 5 µM (Melan-a): 49%

Compound: C=C[C@H]1C[N@]2CC[C@H]1C[C@@H]2[C@@H](O)c1ccnc2ccc(OC)cc12 [ID 6, Quinidine Gluconate]
- IC50 (Melan-a): 2700 ± 140 nM
- inhibition at 1 µM (Melan-a): 41%
- inhibition at 5 µM (Melan-a): 58%

Compound: C=C[C@H]1C[N@]2CC[C@H]1C[C@@H]2C(O)c1ccnc2ccc(OC)cc12 (some centres unmarked) [ID 7, Quinine Sulfate]
- IC50 (Melan-a): 1500 ± 190 nM
- inhibition at 1 µM (Melan-a): 31%
- inhibition at 5 µM (Melan-a): 58%

Compound: CC[C@H]1CN2CCC1C[C@@H]2[C@@H](O)c1ccnc2ccc(OC)cc12 (some centres unmarked) [ID 8, Hydroquinidine]
- inhibition at 1 µM [1]: 30.9%
- inhibition at 5 µM [2]: 52.3%
- IC50 (μM) (inhibition of melanin synthesis, melan-a cells): active

Compound: C=C[C@H]1C[N@]2CC[C@H]1C[C@H]2[C@H](O)c1ccnc2ccccc12 [ID 9, Cinchonidine]
- inhibition at 1 µM [1]: 25%
- inhibition at 5 µM [2]: 35.7%
- IC50 [3]: 10900 ± 220 nM

Compound: C=C[C@H]1C[N@]2CC[C@H]1C[C@@H]2[C@H](O)c1ccnc2ccccc12 [ID 10, Cinchonine]
- inhibition at 1 µM [1]: 18%
- inhibition at 5 µM [2]: 30%
- IC50 [3]: > 20000 nM

Compound: OC(c1cc(C(F)(F)F)nc2c(C(F)(F)F)cccc12)C1CCCCN1 (centres unmarked) [ID 11, Mefloquine]
- inhibition at 1 µM [1]: 10%
- inhibition at 5 µM [2]: 75%
- IC50 [3]: 2000 ± 150 nM

Compound: C=C[C@H]1CN2CCC1CC2C(O)c1ccnc2ccc(OC)cc12 (some centres unmarked) [ID 12, Quinine]
- inhibition at 1 µM [1]: 42.6%
- inhibition at 5 µM [2]: 70.9%

Compound: C=C[C@H]1C[N@@]2CCC1C[C@H]2[C@H](O)c1ccnc2ccc(OC)cc12 [ID 13, Quinine Salicylate]
- inhibition at 1 µM [1]: 33%
- inhibition at 5 µM [2]: 60%

Compound: C=CC1CN2CCC1CC2[C@H](O)c1ccnc2ccc(OC)cc12 (some centres unmarked) [ID 16, Quinine hydrobromide]
- inhibition at 1 µM [1]: 30.1%
- inhibition at 5 µM [2]: 63.9%

Compound: C=C[C@H]1CN2CCC1CC2[C@@H](O)c1ccnc2ccc(OC)cc12 (some centres unmarked) [ID 17, Quinine hydrochloride dihydrate]
- inhibition at 1 µM [1]: 27.5%
- inhibition at 5 µM [2]: 61.5%

Compound: CC[C@H]1CN2CCC1CC2C(O)c1ccnc2ccc(OC)cc12 (some centres unmarked) [ID 18, Hydroquinine]
- inhibition at 1 µM [1]: 37.3%
- inhibition at 5 µM [2]: 71.7%

Compound: CC[C@H]1C[N@@]2CCC1C[C@H]2[C@H](O)c1ccnc2ccc(OC)cc12 [ID 19, Hydroquinine hydrobromide hydrate]
- inhibition at 1 µM [1]: 26.8%
- inhibition at 5 µM [2]: 67.4%

Compound: CC[C@H]1CN2CCC1CC2[C@@H](O)c1ccnc2ccccc12 (some centres unmarked) [ID 20, Hydrocinchonine]
- inhibition at 1 µM (Melan-a): 24%
- inhibition at 5 µM (Melan-a): 37.3%

Compound: C=C[C@H]1C[N+]2(Cc3ccccc3)CC[C@H]1C[C@H]2[C@H](O)c1ccnc2ccccc12.[Cl-] [ID 21, N- Benzylcinchonidinium chloride]
- % Inh. @ 1 μM [4]: 9.6%
- % Inh. @ 5 μM [5]: 16.4%

Compound: CC[C@H]1CN2CCC1CC2[C@@H](OC(=O)c1ccc(Cl)cc1)c1ccnc2ccc(OC)cc12 (some centres unmarked) [ID 22, Hydroquinidine 4-chlorobenzoate]
- inhibition at 1 µM [1]: 10%
- inhibition at 5 µM [2]: 25.5%

Compound: (−)-3-Hydroxybutyric acid, quinine salt [ID 15]
- % Inh. @ 1 μM [4]: 34.4%
- % Inh. @ 5 μM [5]: 63.9%
